For 26 compounds, IC50 results are on record in US8163771B2, “11 β-HSD1 modulators” (Exelixis, Inc., priority 2008, dated 2012).

Molecules are shown by their SMILES.

T1 sequence (P28845 whole entry): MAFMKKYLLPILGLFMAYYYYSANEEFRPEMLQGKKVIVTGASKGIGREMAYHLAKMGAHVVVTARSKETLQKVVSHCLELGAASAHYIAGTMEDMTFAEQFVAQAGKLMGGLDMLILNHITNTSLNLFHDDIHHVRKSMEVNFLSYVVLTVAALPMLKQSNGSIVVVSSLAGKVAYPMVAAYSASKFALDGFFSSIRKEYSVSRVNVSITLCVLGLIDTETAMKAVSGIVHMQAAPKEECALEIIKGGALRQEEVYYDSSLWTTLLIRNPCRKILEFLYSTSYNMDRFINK

This assay concerns the target T1, recombinant human 11 β-HSD1 (Homo sapiens, UniProt P28845).
T1 construct: made in house; host or cells: E. coli
Put plainly: 11 β-HSD1 SPA Assay (Scintillation Proximity Assay). The format is biochemical. A digest of the protocol: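 Scintillation proximity read-out of cortisol formed from 40 nM [3H]cortisone by purified recombinant human enzyme (30-100 nM, E. coli) with 1 mM NADPH, pH7.4, 2 hours at room temperature; beads with cortisol antibody and glycyrrhetinic acid stop the reaction, read next day. IC50 derived from inhibition normalised to background and maximal wells.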
For `COc1cc(F)ccc1OC(C)(C)C(=O)N[C@H]1C[C@H]2CC[C@@H](C1)N2c1ccc(S(N)(=O)=O)cn1` [Example 221, N-{8-[5-(aminosulfonyl)pyridin-2-yl]-8-azabicyclo[3.2.1]oct-3-endo-yl}-2-{[4-fluoro-2-(methyloxy)phenyl]oxy}-2-methylpropanamide], the IC50 (as a rule, the concentration at which inhibition is half-maximal) is < 200 nM. For `CC(C)(Oc1ccc(C(F)(F)F)cc1Cl)C(=O)N[C@H]1C[C@H]2CC[C@@H](C1)N2c1ccc(C(=O)NCC(F)(F)F)cn1` [Example 184, 6-{3-endo-[(2-{[2-chloro-4-(trifluoromethyl)phenyl]oxy}-2-methylpropanoyl)amino]-8-azabicyclo[3.2.1]oct-8-yl}-N-(2,2,2-trifluoroethyl)pyridine-3-carboxamide] the value was < 200 nM; for `CC(C)(Oc1ccc(F)cc1F)C(=O)N[C@H]1C[C@H]2CC[C@@H](C1)N2c1ccc(C(=O)NC2CC2)cn1` [Example 35, N-cyclopropyl-6-[3-endo-({2-[(2,4-difluorophenyl)oxy]-2-methylpropanoyl}amino)-8-azabicyclo[3.2.1]oct-8-yl]pyridine-3-carboxamide], < 200 nM; for `CC(C)(Oc1ccc(F)cc1Cl)C(=O)N[C@H]1C[C@H]2CC[C@@H](C1)N2c1ccc(S(C)(=O)=O)cn1` [Example 155, 2-[(2-chloro-4-fluorophenyl)oxy]-2-methyl-N-{8-[5-(methylsulfonyl)pyridin-2-yl]-8-azabicyclo[3.2.1]oct-3-endo-yl}propanamide], < 200 nM.

Turning to `CC(C)(Oc1ccc(F)cc1Cl)C(=O)N[C@H]1C[C@H]2CC[C@@H](C1)N2c1ccc(C(=O)NCC(F)F)cn1` [Example 371, 6-(3-endo-{[2-(2-chloro-4-fluorophenoxy)-2-methylpropanoyl]amino}-8-azabicyclo[3.2.1]oct-8-yl)-N-(2,2-difluoroethyl)pyridine-3-carboxamide], the IC50 was < 200 nM. As for `O=C(NCC(F)(F)F)c1ccc(N2[C@@H]3CC[C@H]2C[C@@H](NC(=O)C2(c4ccc(F)c(F)c4)CC2)C3)nc1` [Example 121, 6-[3-endo-({[1-(3,4-difluorophenyl)cyclopropyl]carbonyl}amino)-8-azabicyclo[3.2.1]oct-8-yl]-N-(2,2,2-trifluoroethyl)pyridine-3-carboxamide], the IC50 was < 200 nM. For `CC(C)(Oc1c(Cl)cc(F)cc1Cl)C(=O)N[C@H]1C[C@H]2CC[C@@H](C1)N2c1ccc(S(N)(=O)=O)cn1` [Example 238, N-{8-[5-(aminosulfonyl)pyridin-2-yl]-8-azabicyclo[3.2.1]oct-3-endo-yl}-2-[(2,6-dichloro-4-fluorophenyl)oxy]-2-methylpropanamide] the value was < 200 nM; for `O=C(NC1CC1)c1ccc(N2[C@@H]3CC[C@H]2C[C@@H](NC(=O)C2(Oc4ccc(Cl)cc4)CC2)C3)nc1` [Example 64, 6-{3-endo-[({1-[(4-chlorophenyl)oxy]cyclopropyl}carbonyl)amino]-8-azabicyclo[3.2.1]oct-8-yl}-N-cyclopropylpyridine-3-carboxamide], < 200 nM. For `CS(=O)(=O)c1ccc(N2[C@@H]3CC[C@H]2C[C@@H](NC(=O)C2(c4ccc(F)c(Cl)c4)CC2)C3)nc1` [Example 332, 1-(3-chloro-4-fluorophenyl)-N-{8-[5-(methylsulfonyl)pyridin-2-yl]-8-azabicyclo[3.2.1]oct-3-endo-yl}cyclopropanecarboxamide] the value was < 200 nM; for `CC(C)(Oc1ccc(Cl)cc1Cl)C(=O)NC1CC2CCC(C1)N2c1ccc(C(=O)N2CC[C@@H](O)C2)cn1` (stereo partly drawn) [Example 461, 2-(2,4-dichlorophenoxy)-n-[8-(5-{[(3r)-3-hydroxypyrrolidin-1-yl]carbonyl}pyridin-2-yl)-8-azabicyclo[3.2.1]oct-3-endo-yl]-2-methylpropanamide], < 200 nM. With `CC(C)(Oc1cc(OC(C)(C)C(=O)N[C@H]2C[C@H]3CC[C@@H](C2)N3c2ccc(C(=O)NCC(F)(F)F)cn2)c(Cl)cc1Cl)C(=O)O` [Example 414, 2-(2,4-dichloro-5-(2-methyl-1-oxo-1-(8-(5-(2,2,2-trifluoroethylcarbamoyl)pyridin-2-yl)-8-azabicyclo[3.2.1]octan-3-endo-ylamino)propan-2-yloxy)phenoxy)-2-methylpropanoic acid] the figure was < 2000 nM.

In the case of `CC(C)(Oc1cc(Cl)ccc1Cl)C(=O)N[C@H]1C[C@H]2CC[C@@H](C1)N2c1ccc(C(=O)NCC(F)(F)F)cn1` [Example 72, 6-[3-endo-({2-[(2,5-dichlorophenyl)oxy]-2-methylpropanoyl}amino)-8-azabicyclo[3.2.1]oct-8-yl]-N-(2,2,2-trifluoroethyl)pyridine-3-carboxamide], the IC50 was < 200 nM. Regarding `CC(C)NC(=O)c1ccc(N2[C@@H]3CC[C@H]2C[C@@H](NC(=O)C(C)(C)Oc2ccc(Cl)cc2S(C)(=O)=O)C3)nc1` [Example 368, 6-[3-endo-({2-[4-chloro-2-(methylsulfonyl)phenoxy]-2-methylpropanoyl}amino)-8-azabicyclo[3.2.1]oct-8-yl]-N-(propan-2-yl)pyridine-3-carboxamide], the IC50 was < 200 nM. For `CC(C)(Oc1ccc(C(F)(F)F)cc1)C(=O)N[C@H]1C[C@H]2CC[C@@H](C1)N2c1ccc(C(=O)NCC(F)(F)F)cn1` [Example 111, 6-{3-endo-[(2-methyl-2-{[4-(trifluoromethyl)phenyl]oxy}propanoyl)amino]-8-azabicyclo[3.2.1]oct-8-yl}-N-(2,2,2-trifluoroethyl)pyridine-3-carboxamide] the value was < 200 nM; for `O=C(NCC(F)(F)F)c1ccc(N2[C@@H]3CC[C@H]2C[C@@H](NC(=O)C2(c4cccc(F)c4)CC2)C3)nc1` [Example 123, 6-[3-endo-({[1-(3-fluorophenyl)cyclopropyl]carbonyl}amino)-8-azabicyclo[3.2.1]oct-8-yl]-N-(2,2,2-trifluoroethyl)pyridine-3-carboxamide], < 200 nM; for `CC(C)(Oc1ccc(Cl)cc1Cl)C(=O)N[C@H]1C[C@H]2CC[C@@H](C1)N2c1ccc(C(=O)NCCN2CCOCC2)cn1` [Example 362, 6-(3-endo-{[2-(2,4-dichlorophenoxy)-2-methylpropanoyl]amino}-8-azabicyclo[3.2.1]oct-8-yl)-N-[2-(morpholin-4-yl)ethyl]pyridine-3-carboxamide], < 200 nM. With `CC(C)(Oc1ccc(Cl)cc1Cl)C(=O)NC1CC2CCC(C1)N2c1ncc(NC(=O)CC(F)(F)F)cc1Cl` (stereo not drawn) [Example 278, N-{5-chloro-6-[3-endo-({2-[(2,4-dichlorophenyl)oxy]-2-methylpropanoyl}amino)-8-azabicyclo[3.2.1]oct-8-yl]pyridin-3-yl}-3,3,3-trifluoropropanamide], the concentration for half-maximal inhibition (IC50) was < 2000 nM. For `CC(C)(Oc1ccc(C#N)cc1)C(=O)N[C@H]1C[C@H]2CC[C@@H](C1)N2c1ccc(C(=O)NC2CC2)cn1` [Example 38, 6-[3-endo-({2-[(4-cyanophenyl)oxy]-2-methylpropanoyl}amino)-8-azabicyclo[3.2.1]oct-8-yl]-N-cyclopropylpyridine-3-carboxamide] the value was < 200 nM; for `CC(C)(Oc1cc(C(C)(C)C(N)=O)c(Cl)cc1Cl)C(=O)N[C@H]1C[C@H]2CC[C@@H](C1)N2c1ccc(C(=O)NCC(F)(F)F)cn1` [Example 446, 6-[3-endo-({2-[5-(1-amino-2-methyl-1-oxopropan-2-yl)-2,4-dichlorophenoxy]-2-methylpropanoyl}amino)-8-azabicyclo[3.2.1]oct-8-yl]-N-(2,2,2-trifluoroethyl)pyridine-3-carboxamide], < 200 nM. With `CC(C)(Oc1ccc(Cl)cc1Br)C(=O)N[C@H]1C[C@H]2CC[C@@H](C1)N2c1ccc(C(=O)NCC(F)(F)F)cn1` [Example 337, 6-(3-endo-{[2-(2-bromo-4-chlorophenoxy)-2-methylpropanoyl]amino}-8-azabicyclo[3.2.1]oct-8-yl)-N-(2,2,2-trifluoroethyl)pyridine-3-carboxamide] the figure was < 200 nM; with `CC(C)(Oc1ccc(Cl)cc1)C(=O)N[C@H]1C[C@H]2CC[C@@H](C1)N2c1cnccn1` [Example 66, 2-[(4-chlorophenyl)oxy]-2-methyl-N-(8-pyrazin-2-yl-8-azabicyclo[3.2.1]oct-3-endo-yl)propanamide], < 200 nM. With `CC(C)(Oc1ccc(Cl)cc1Cl)C(=O)NC1CC2CCC(C1)N2c1ccc(C(=O)NC2CC2(F)F)cn1` (stereo not drawn) [Example 268, 6-[3-endo-({2-[(2,4-dichlorophenyl)oxy]-2-methylpropanoyl}amino)-8-azabicyclo[3.2.1]oct-8-yl]-N-(2,2-difluorocyclopropyl)pyridine-3-carboxamide] the figure was < 200 nM. `CC(C)(Oc1ccc(F)c(F)c1)C(=O)N[C@H]1C[C@H]2CC[C@@H](C1)N2c1ccc(S(C)(=O)=O)cn1` [Example 207, 2-[(3,4-difluorophenyl)oxy]-2-methyl-N-{8-[5-(methylsulfonyl)pyridin-2-yl]-8-azabicyclo[3.2.1]oct-3-endo-yl}propanamide]: the IC50 is < 2000 nM.

In the case of `CC(C)(Oc1cc(C(C)(C)O)c(Cl)cc1Cl)C(=O)NC1CC2CCC(C1)N2c1ccc(C(=O)NCC(O)C(F)(F)F)cn1` (stereo not drawn) [Example 381, 6-[3-endo-({2-[2,4-dichloro-5-(2-hydroxypropan-2-yl)phenoxy]-2-methylpropanoyl}amino)-8-azabicyclo[3.2.1]oct-8-yl]-N-(3,3,3-trifluoro-2-hydroxypropyl)pyridine-3-carboxamide], the half-maximal inhibitory concentration (IC50) was < 200 nM. `CC(C)(Oc1ccc(Cl)cc1Cl)C(=O)N[C@H]1C[C@H]2CC[C@@H](C1)N2C(=O)c1ccc(C(N)=O)cc1` [Example 279, 4-{[3-endo-({2-[(2,4-dichlorophenyl)oxy]-2-methylpropanoyl}amino)-8-azabicyclo[3.2.1]oct-8-yl]carbonyl}benzamide]: the IC50 is < 2000 nM. For `CC(C)(Oc1ccc(Cl)cc1Cl)C(=O)N[C@H]1C[C@H]2CC[C@@H](C1)N2c1cc(C(=O)NC2CC2)ccn1` [Example 143, N-cyclopropyl-2-[3-endo-({2-[(2,4-dichlorophenyl)oxy]-2-methylpropanoyl}amino)-8-azabicyclo[3.2.1]oct-8-yl]pyridine-4-carboxamide] the value was < 2000 nM.
